According to PubChem BioAssay AID1963848 (Molecular Pharmacology Branch, DTP, NCI, 2024):

Test system: 379773-124-R-J2-PDC spheroid viability
Assay: Anticancer human tumor 379773-124-R-J2-PDC patient-derived endometrial carcinoma cell line growth inhibition [POLQ]
Conditions: spheroids with HUVEC and MSC; for IC50: curve of first compound; for viability, T/C: stronger effect = lower value
How it was run: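 Three-cell-type spheroids modelling solid tumor plus stroma served as the readout system; POL inhibitors were tested individually and in combination, concentration ranges set by clinical Cmax where known.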

[1] = second compound 0.0316 µM, first compound 0.00316 µM
[2] = second compound 0.0316 µM, first compound 0.01 µM
[3] = second compound 0.0316 µM, first compound 0.0316 µM
[4] = second compound 0.0316 µM, first compound 0.1 µM
[5] = second compound 0.1 µM, first compound 0.00316 µM
[6] = second compound 0.1 µM, first compound 0.01 µM
[7] = second compound 0.1 µM, first compound 0.0316 µM
[8] = second compound 0.1 µM, first compound 0.1 µM
[9] = second compound 0.316 µM, first compound 0.00316 µM
[10] = second compound 0.316 µM, first compound 0.01 µM
[11] = second compound 0.316 µM, first compound 0.0316 µM
[12] = second compound 0.316 µM, first compound 0.1 µM
[13] = second compound 1 µM, first compound 0.00316 µM
[14] = second compound 1 µM, first compound 0.01 µM
[15] = second compound 1 µM, first compound 0.0316 µM
[16] = second compound 1 µM, first compound 0.1 µM
[17] = second compound 3.16 µM, first compound 0.00316 µM
[18] = second compound 3.16 µM, first compound 0.01 µM
[19] = second compound 3.16 µM, first compound 0.0316 µM
[20] = second compound 3.16 µM, first compound 0.1 µM
[21] = second compound 10 µM, first compound 0.00316 µM
[22] = second compound 10 µM, first compound 0.01 µM
[23] = second compound 10 µM, first compound 0.0316 µM
[24] = second compound 10 µM, first compound 0.1 µM
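Further: spheroids exposed to drugs for seven days before readout.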
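Wherever viability, T/C is given: percent viability relative to DMSO vehicle control taken as 100%.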

`C=CCn1c(=O)c2cnc(Nc3ccc(N4CCN(C)CC4)cc3)nc2n1-c1cccc(C(C)(C)O)n1` + COC1C(OC(N)=O)C(O)C(Oc2ccc3c(O)c(NC(=O)c4ccc(O)c(CC=C(C)C)c4)c(=O)oc3c2C)OC1(C)C gave an IC50 (second compound 0.0316 µM) of 453 nM, an IC50 (second compound 0.1 µM) of 425 nM and an IC50 (second compound 0.316 µM) of 354 nM. For the same compound, the IC50 (second compound 1 µM) was 487 nM, the IC50 (second compound 3.16 µM) was 472 nM and the IC50 (second compound 10 µM) was 436 nM. The viability, T/C [1] was 84.1%, the viability, T/C [2] was 74.3% and the viability, T/C [3] was 89.5%. It also gave a viability, T/C [4] of 79.7%, a viability, T/C (second compound 0.0316 µM, first compound 0.316 µM) of 71.9% and a viability, T/C (second compound 0.0316 µM, first compound 1 µM) of 1.84%. The viability, T/C [5] was 82.8%, the viability, T/C [6] was 73.7% and the viability, T/C [7] was 85.3%. For the same compound, the viability, T/C [8] was 81.7%, the viability, T/C (second compound 0.1 µM, first compound 0.316 µM) was 66.2% and the viability, T/C (second compound 0.1 µM, first compound 1 µM) was 3.04%. It also gave a viability, T/C [9] of 87.9%, a viability, T/C [10] of 74.8% and a viability, T/C [11] of 88.3%. The viability, T/C [12] was 88%, the viability, T/C (second compound 0.316 µM, first compound 0.316 µM) was 55.3% and the viability, T/C (second compound 0.316 µM, first compound 1 µM) was 2.39%. The viability, T/C [13] was 80.6%, the viability, T/C [14] was 89.8% and the viability, T/C [15] was 78.3%. The viability, T/C [16] was 88.8%, the viability, T/C (second compound 1 µM, first compound 0.316 µM) was 78.2% and the viability, T/C (second compound 1 µM, first compound 1 µM) was 2.58%. It also gave a viability, T/C [17] of 85.6%, a viability, T/C [18] of 86.9% and a viability, T/C [19] of 79.6%. The viability, T/C [20] was 77.5%, the viability, T/C (second compound 3.16 µM, first compound 0.316 µM) was 74.8% and the viability, T/C (second compound 3.16 µM, first compound 1 µM) was 3.31%. It also gave a viability, T/C [21] of 77.5%, a viability, T/C [22] of 66.6% and a viability, T/C [23] of 103%. The viability, T/C [24] was 81%, the viability, T/C (second compound 10 µM, first compound 0.316 µM) was 68.6% and the viability, T/C (second compound 10 µM, first compound 1 µM) was 2.21%.
`CC[C@@]1(O)C(=O)OCc2c1cc1n(c2=O)Cc2cc3c(CN(C)C)c(O)ccc3nc2-1` + COC1C(OC(N)=O)C(O)C(Oc2ccc3c(O)c(NC(=O)c4ccc(O)c(CC=C(C)C)c4)c(=O)oc3c2C)OC1(C)C was tested, and the IC50 (second compound 0.0316 µM) was 32.5 nM, the IC50 (second compound 0.1 µM) was 19.2 nM and the IC50 (second compound 0.316 µM) was 19 nM. The IC50 (second compound 1 µM) was 17 nM, the IC50 (second compound 3.16 µM) was 21.9 nM and the IC50 (second compound 10 µM) was 21 nM. It also gave a viability, T/C (second compound 0.0316 µM, first compound 0.000316 µM) of 86.5%, a viability, T/C (second compound 0.0316 µM, first compound 0.001 µM) of 79.3% and a viability, T/C [1] of 85.7%. The viability, T/C [2] was 73.5%, the viability, T/C [3] was 51.2% and the viability, T/C [4] was 10.9%. The viability, T/C (second compound 0.1 µM, first compound 0.000316 µM) was 73.3%, the viability, T/C (second compound 0.1 µM, first compound 0.001 µM) was 77.8% and the viability, T/C [5] was 74.1%. It also gave a viability, T/C [6] of 71.2%, a viability, T/C [7] of 33.9% and a viability, T/C [8] of 14.1%. The viability, T/C (second compound 0.316 µM, first compound 0.000316 µM) was 85.7%, the viability, T/C (second compound 0.316 µM, first compound 0.001 µM) was 78.6% and the viability, T/C [9] was 78.2%. The viability, T/C [10] was 71.2%, the viability, T/C [11] was 33.6% and the viability, T/C [12] was 12.1%. It also gave a viability, T/C (second compound 1 µM, first compound 0.000316 µM) of 86.4%, a viability, T/C (second compound 1 µM, first compound 0.001 µM) of 94.9% and a viability, T/C [13] of 72.6%. It also gave a viability, T/C [14] of 68%, a viability, T/C [15] of 32.2% and a viability, T/C [16] of 9.89%. It also gave a viability, T/C (second compound 3.16 µM, first compound 0.000316 µM) of 76.9%, a viability, T/C (second compound 3.16 µM, first compound 0.001 µM) of 71.5% and a viability, T/C [17] of 83.1%. It also gave a viability, T/C [18] of 65%, a viability, T/C [19] of 42.4% and a viability, T/C [20] of 11.6%. It also gave a viability, T/C (second compound 10 µM, first compound 0.000316 µM) of 72.9%, a viability, T/C (second compound 10 µM, first compound 0.001 µM) of 73.3% and a viability, T/C [21] of 82.5%. It also gave a viability, T/C [22] of 69.6%, a viability, T/C [23] of 38.8% and a viability, T/C [24] of 12.5%.
